In ChEMBL document CHEMBL6083204, “Synthesis of a celastrol derivative as a cancer stem cell inhibitor through regulation of the STAT3 pathway for treatment of ovarian cancer” (RSC Med Chem, 2024):
Active and inactive are the calls of the source. The calls are words filed in the database; no cut-off is given here.

What was measured:
[1] = Cytotoxicity against human IOSE80 cells assessed as inhibition of cell growth incubated for 72 hrs by MTT assay; format: toxicity, cell-based
SK-OV-3 [2] = assay: Inhibition of colony formation in human SK-OV-3 cells assessed as reduction in colony number incubated for 10 days by crystal violet staining based analysis; format: functional, cell-based; conditions: time 10.0 day
A2780 [3] = assay: Inhibition of colony formation in human A2780 cells assessed as reduction in colony number incubated for 10 days by crystal violet staining based analysis; format: functional, cell-based; conditions: time 10.0 day
A2780 [4] = assay: Inhibition of colony formation in human A2780 cells assessed as reduction in colony size incubated for 10 days by crystal violet staining based analysis; format: functional, cell-based; conditions: time 10.0 day
SK-OV-3 [5] = assay: Antiproliferative activity against human SK-OV-3 cells assessed as decrease in CD44 positive CD24 negative cells expression at 0.2 uM incubated for 24 hrs by FITC staining based flow cytometry (reference value: 85.6 %); format: functional; set-up: scale not given: the % may be the effect or the level left
A2780 [6] = assay: Antiproliferative activity against human A2780 cells assessed as decrease in CD44 positive CD24 negative cells expression at 0.4 uM incubated for 24 hrs by FITC staining based flow cytometry (reference value: 28.13 %); format: functional; set-up: scale not given: the % may be the effect or the level left
SK-OV-3 [7] = assay: Antiproliferative activity against human SK-OV-3 cells assessed as decrease in ALDH positive cells at 0.2 uM incubated for 24 hrs by ALDEFLUOR staining based flow cytometry (reference value: 3.83 %); format: functional; set-up: scale not given: the % may be the effect or the level left
A2780 [8] = assay: Antiproliferative activity against human A2780 cells assessed as decrease in ALDH positive cells at 0.4 uM incubated for 24 hrs by ALDEFLUOR staining based flow cytometry (reference value: 32.5 %); format: functional; set-up: scale not given: the % may be the effect or the level left
[9] = target: Tyrosine-protein kinase JAK2 (Homo sapiens) (UniProt O60674); assay: Inhibition of JAK2 in human SK-OV-3 cells assessed as downregulation of JAK2 phosphorylation at 0.1 to 0.4 uM incubated for 24 hrs by Western blotting analysis; format: cell-based; conditions: dose 0.1-0.4 µM
[10] = target: Signal transducer and activator of transcription 3 (Homo sapiens) (UniProt P40763); assay: Inhibition of STAT3 in human SK-OV-3 cells assessed as downregulation of STAT3 phosphorylation at Tyr705 residue in nuclei at 0.2 uM incubated for 24 hrs by Hoechst33342 staining based immunofluorescence assay; format: cell-based
[11] = target: Signal transducer and activator of transcription 3 (Homo sapiens) (UniProt P40763); assay: Inhibition of STAT3 in human A2780 cells assessed as downregulation of STAT3 expression in nuclei at 0.2 uM incubated for 24 hrs by Hoechst33342 staining based immunofluorescence assay; format: cell-based
[12] = target: Signal transducer and activator of transcription 3 (Homo sapiens) (UniProt P40763); assay: Inhibition of STAT3 in human SK-OV-3 cells assessed as downregulation of cytoplasmic STAT3 phosphorylation at Tyr705 residue at 0.2 uM incubated for 24 hrs by Hoechst33342 staining based immunofluorescence assay; format: cell-based
[13] = target: Signal transducer and activator of transcription 3 (Homo sapiens) (UniProt P40763); assay: Inhibition of STAT3 in human SK-OV-3 cells assessed as downregulation of cytoplasmic STAT3 phosphorylation at Ser727 residue at 0.2 uM incubated for 24 hrs by Hoechst33342 staining based immunofluorescence assay; format: cell-based
[14] = target: Signal transducer and activator of transcription 3 (Homo sapiens) (UniProt P40763); assay: Inhibition of STAT3 in human A2780 cells assessed as downregulation of cytoplasmic STAT3 expression at 0.2 uM incubated for 24 hrs by Hoechst33342 staining based immunofluorescence assay; format: cell-based
SK-OV-3 [15] = assay: Induction of cell cycle arrest in human SK-OV-3 cells assessed as accumulation of cells at S phase at 0.4 uM incubated for 24 hrs by BrdU staining based flow cytometry (reference value: 33.6 %); format: functional
SK-OV-3 [16] = assay: Induction of cell cycle arrest in human SK-OV-3 cells assessed as accumulation of cells at G2/M phase at 0.8 uM incubated for 24 hrs by BrdU staining based flow cytometry (reference value: 6.3 %); format: functional
SK-OV-3 [17] = assay: Induction of cell cycle arrest in human SK-OV-3 cells assessed as reduction of CDK4 expression at 0.2 uM incubated for 24 hrs by flow cytometry (reference value: 66.8 %); format: functional; set-up: scale not given: the % may be the effect or the level left
SK-OV-3 [18] = assay: Induction of cell cycle arrest in human SK-OV-3 cells assessed as reduction of Cyclin D1 expression at 0.8 uM incubated for 24 hrs by flow cytometry (reference value: 93.8 %); format: functional; set-up: scale not given: the % may be the effect or the level left
A2780 [19] = assay: Induction of cell cycle arrest in human A2780 cells assessed as reduction of CDK4 expression at 0.4 uM incubated for 24 hrs by flow cytometry (reference value: 93.6 %); format: functional; set-up: scale not given: the % may be the effect or the level left
SK-OV-3 [20] = assay: Induction of apoptosis in human SK-OV-3 cells assessed as viable cells at 0.2 uM incubated for 24 hrs by Annexin V-FITC/7-AAD staining based flow cytometry (reference value: 94.6 %); format: functional; conditions: read-out: Activity
SK-OV-3 [21] = assay: Induction of apoptosis in human SK-OV-3 cells assessed as early apoptotic cells at 0.4 uM incubated for 24 hrs by Annexin V-FITC/7-AAD staining based flow cytometry (reference value: 1.6 %); format: functional
SK-OV-3 [22] = assay: Induction of apoptosis in human SK-OV-3 cells assessed as late apoptotic cells at 0.2 uM incubated for 24 hrs by Annexin V-FITC/7-AAD staining based flow cytometry (reference value: 3.7 %); format: functional
SK-OV-3 [23] = assay: Induction of apoptosis in human SK-OV-3 cells assessed as necrotic cells at 0.2 uM incubated for 24 hrs by Annexin V-FITC/7-AAD staining based flow cytometry (reference value: 0.6 %); format: functional
A2780 [24] = assay: Induction of apoptosis in human A2780 cells assessed as early apoptotic cells at 0.2 uM incubated for 24 hrs by Annexin V-FITC/7-AAD staining based flow cytometry (reference value: 1.9 %); format: functional
A2780 [25] = assay: Induction of apoptosis in human A2780 cells assessed as necrotic cells at 0.4 uM incubated for 24 hrs by Annexin V-FITC/7-AAD staining based flow cytometry (reference value: 1 %); format: functional
Mitochondrial membrane = assay: Induction of mitochondrial membrane potential loss in human SK-OV-3 cells at 0.1 uM incubated for 24 hrs by JC-1 staining based flow cytometry (reference value: 73.6 %)
SK-OV-3 [26] = assay: Induction of apoptosis in human SK-OV-3 cells assessed as increase in caspase-8 activity at 0.2 uM incubated for 24 hrs by flow cytometry (reference value: 2.5 %); format: functional
A2780 [27] = assay: Induction of apoptosis in human A2780 cells assessed as increase in caspase-8 activity at 0.8 uM incubated for 24 hrs by flow cytometry (reference value: 1.2 %); format: functional
A2780 [28] = assay: Inhibition of cell migration in human A2780 cells assessed as reduction in number of migrated cells at 0.1 to 0.4 uM incubated for 24 hrs by crystal violet staining based transwell assay; format: functional; conditions: dose 0.1-0.4 µM
A2780 [29] = assay: Inhibition of cell invasion in human A2780 cells incubated for 24 hrs by crystal violet staining based transwell assay; format: functional
SK-OV-3 [30] = assay: Inhibition of cell migration in human SK-OV-3 cells assessed as downregulation of phosphorylated FAK expression at 0.1 to 0.4 uM incubated for 24 hrs by Western blotting analysis; format: functional, cell-based; conditions: dose 0.1-0.4 µM
[31] = Toxicity in BALB/c mouse xenografted with human SK-OV-3 cells assessed as pathological change in lung at 2 to 5 mg/kg,ip administrated for 21 consecutive days by hematoxylin and eosin staining based assay; format: organism-based; conditions: in vivo, dose 2-5 mg/kg
[32] = Toxicity in BALB/c mouse xenografted with human SK-OV-3 cells assessed as pathological change in kidney at 2 to 5 mg/kg,ip administrated for 21 consecutive days by hematoxylin and eosin staining based assay; format: organism-based; conditions: in vivo, dose 2-5 mg/kg

Sequence of Signal transducer and activator of transcription 3 (Homo sapiens) (P40763 whole entry): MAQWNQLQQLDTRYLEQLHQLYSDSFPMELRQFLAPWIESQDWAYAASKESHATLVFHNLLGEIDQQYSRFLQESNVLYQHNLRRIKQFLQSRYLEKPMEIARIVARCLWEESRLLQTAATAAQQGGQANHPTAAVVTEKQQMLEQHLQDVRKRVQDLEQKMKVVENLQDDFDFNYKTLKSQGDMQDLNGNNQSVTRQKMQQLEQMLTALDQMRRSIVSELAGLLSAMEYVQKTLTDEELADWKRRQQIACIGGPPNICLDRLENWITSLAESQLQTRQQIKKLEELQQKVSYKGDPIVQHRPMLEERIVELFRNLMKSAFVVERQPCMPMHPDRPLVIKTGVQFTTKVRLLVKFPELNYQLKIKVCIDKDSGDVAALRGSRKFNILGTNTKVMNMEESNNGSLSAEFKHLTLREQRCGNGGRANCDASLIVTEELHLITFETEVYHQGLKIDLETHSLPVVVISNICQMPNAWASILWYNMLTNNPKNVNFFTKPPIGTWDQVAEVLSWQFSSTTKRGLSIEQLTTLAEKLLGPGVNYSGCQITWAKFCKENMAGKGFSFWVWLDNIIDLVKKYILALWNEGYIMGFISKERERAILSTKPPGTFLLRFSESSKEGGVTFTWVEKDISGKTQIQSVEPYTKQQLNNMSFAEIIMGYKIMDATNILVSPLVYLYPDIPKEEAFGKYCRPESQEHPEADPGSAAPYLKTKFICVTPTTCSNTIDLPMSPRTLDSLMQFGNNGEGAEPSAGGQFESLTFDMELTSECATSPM
Sequence of Tyrosine-protein kinase JAK2 (Homo sapiens) (O60674 whole entry): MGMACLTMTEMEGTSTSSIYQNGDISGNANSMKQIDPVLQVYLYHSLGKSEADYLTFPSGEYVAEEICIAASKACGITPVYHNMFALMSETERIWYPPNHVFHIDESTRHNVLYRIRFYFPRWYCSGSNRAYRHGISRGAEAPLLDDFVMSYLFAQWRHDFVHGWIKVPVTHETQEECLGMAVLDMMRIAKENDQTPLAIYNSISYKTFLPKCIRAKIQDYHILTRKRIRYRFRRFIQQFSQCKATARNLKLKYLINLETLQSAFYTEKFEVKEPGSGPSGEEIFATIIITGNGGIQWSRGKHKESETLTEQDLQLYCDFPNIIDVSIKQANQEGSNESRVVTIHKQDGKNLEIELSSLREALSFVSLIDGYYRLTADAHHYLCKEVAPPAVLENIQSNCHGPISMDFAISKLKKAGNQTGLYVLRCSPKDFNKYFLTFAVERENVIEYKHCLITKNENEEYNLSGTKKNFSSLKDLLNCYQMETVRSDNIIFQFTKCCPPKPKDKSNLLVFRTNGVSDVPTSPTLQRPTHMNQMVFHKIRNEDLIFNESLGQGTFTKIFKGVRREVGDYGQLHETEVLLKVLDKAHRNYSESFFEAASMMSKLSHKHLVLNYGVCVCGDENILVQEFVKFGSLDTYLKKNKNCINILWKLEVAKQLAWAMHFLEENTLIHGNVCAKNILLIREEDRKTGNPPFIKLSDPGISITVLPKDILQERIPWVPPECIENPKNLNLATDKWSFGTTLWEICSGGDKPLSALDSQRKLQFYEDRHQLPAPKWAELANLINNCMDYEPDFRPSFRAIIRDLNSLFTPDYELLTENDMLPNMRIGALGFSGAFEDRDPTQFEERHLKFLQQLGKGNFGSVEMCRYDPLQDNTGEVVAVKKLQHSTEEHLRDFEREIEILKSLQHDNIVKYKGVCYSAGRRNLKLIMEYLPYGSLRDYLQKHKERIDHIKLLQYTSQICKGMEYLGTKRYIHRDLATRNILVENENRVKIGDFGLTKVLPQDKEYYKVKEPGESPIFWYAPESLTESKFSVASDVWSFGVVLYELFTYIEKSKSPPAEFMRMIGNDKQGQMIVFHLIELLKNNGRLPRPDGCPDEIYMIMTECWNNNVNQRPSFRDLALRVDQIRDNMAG

Question: For CC1=C(O)C(=O)C=C2C1=CC=C1[C@@]2(C)CC[C@@]2(C)[C@@H]3C[C@](C)(C(=O)N4CCNCC4)CC[C@]3(C)CC[C@]12C, which IC50 at 72 h [1] is on record?
Answer: The IC50 at 72 h was 1.01 µM.

Question: And the inhibition (SK-OV-3 [2])?
Answer: The inhibition was “Dose-dependent-effect”.

Question: And the inhibition (A2780 [3])?
Answer: Its inhibition is “Dose-dependent-effect”.

Question: What about the inhibition (A2780 [4]) of the same molecule?
Answer: Its inhibition is “Dose-dependent-effect”.

Question: What about the Activity (SK-OV-3 [5]) of the same molecule?
Answer: Its Activity is 64.53%.

Question: And the Activity (A2780 [6])?
Answer: Its Activity is 2.93%.

Question: What about the Activity (SK-OV-3 [7]) of the same molecule?
Answer: The Activity was 2.07%.

Question: And the Activity (A2780 [8])?
Answer: The Activity was 0.37%.

Question: What about the inhibition [9] of the same molecule?
Answer: The inhibition was “Active”.

Question: What about the inhibition [10] of the same molecule?
Answer: The inhibition was “Active”.

Question: And the inhibition [11]?
Answer: The inhibition was “Active”.

Question: And the inhibition [12]?
Answer: The inhibition was “Active; Showed Mild Inhibition Activity”.

Question: What about the inhibition [13] of the same molecule?
Answer: The inhibition was “Active; Showed Mild Inhibition Activity”.

Question: And the inhibition [14]?
Answer: Its inhibition is “Active; Showed Mild Inhibition Activity”.

Question: And the Activity (SK-OV-3 [15])?
Answer: Its Activity is 42.9%.

Question: What about the Activity (SK-OV-3 [16]) of the same molecule?
Answer: The Activity was 18.2%.

Question: And the Activity (SK-OV-3 [17])?
Answer: The Activity was 67%.

Question: What about the Activity (SK-OV-3 [18]) of the same molecule?
Answer: The Activity was 53.1%.

Question: What about the Activity (A2780 [19]) of the same molecule?
Answer: The Activity was 17.2%.

Question: And the viability at 0.2 µM (SK-OV-3 [20])?
Answer: Its viability at 0.2 µM is 74.2%.

Question: What about the Activity (SK-OV-3 [21]) of the same molecule?
Answer: The Activity was 23.3%.

Question: And the Activity (SK-OV-3 [22])?
Answer: The Activity was 7.8%.

Question: And the Activity (SK-OV-3 [23])?
Answer: The Activity was 0.7%.

Question: What about the Activity (A2780 [24]) of the same molecule?
Answer: The Activity was 4.4%.

Question: And the Activity (A2780 [25])?
Answer: Its Activity is 2.3%.

Question: What about the Activity (Mitochondrial membrane) of the same molecule?
Answer: The Activity was 70.7%.

Question: What about the Activity (SK-OV-3 [26]) of the same molecule?
Answer: The Activity was 6.2%.

Question: And the Activity (A2780 [27])?
Answer: Its Activity is 12%.

Question: And the inhibition (A2780 [28])?
Answer: Its inhibition is “Active”.

Question: What about the inhibition (A2780 [29]) of the same molecule?
Answer: Its inhibition is “Dose-dependent-effect”.

Question: What about the inhibition (SK-OV-3 [30]) of the same molecule?
Answer: The inhibition was “Active”.

Question: What about the Activity [31] of the same molecule?
Answer: Its Activity is “Non-toxic”.

Question: And the Activity [32]?
Answer: Its Activity is “Non-toxic”.
